The test concerns the target T1, human renin (Homo sapiens, UniProt P00797).
T1 construct: purchased National Institute for Biological Standards, London
T1 sequence (P00797 67-406): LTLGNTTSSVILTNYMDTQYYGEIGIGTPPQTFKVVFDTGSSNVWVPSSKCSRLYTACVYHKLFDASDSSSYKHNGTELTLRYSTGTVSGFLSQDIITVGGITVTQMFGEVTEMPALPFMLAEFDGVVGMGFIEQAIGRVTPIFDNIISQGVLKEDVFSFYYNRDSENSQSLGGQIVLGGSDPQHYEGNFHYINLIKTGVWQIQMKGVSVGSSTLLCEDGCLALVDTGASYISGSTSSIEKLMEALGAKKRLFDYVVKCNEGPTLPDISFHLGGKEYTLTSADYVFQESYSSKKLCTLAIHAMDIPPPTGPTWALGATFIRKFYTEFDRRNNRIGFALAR
Nature of the test: Human renin inhibition in vitro. The note with it: human renin with human plasma as substrate, pH 7.4, 37° C., two hours; angiotensin I by radioimmunoassay; read-out: inhibit human renin in vitro, IC50. Format: biochemical. The protocol: Compounds of Formula I were evaluated as inhibitors of human renin in an in vitro assay, as follows: This human renin inhibition test has been previously described in detail [Papaioannou et al., Clinical and Experimental Hypertension, A7(9), 1243-1257 (1985)]. Human renin was obtained from the National Institute for Biological Standards, London. An incubation mixture was prepared containing the following components: in a total volume of 0.25 mL: 100 mM Tris-acetate buffer at pH 7.4, 25×10^−6 Goldblatt units of renin, 0.05 mL of plasma from human volunteers taking oral contraceptives, 6.0 mM Na-EDTA, 2.4 mM phenylmethyl sulfonyl fluoride, 1.5 mM 8-hydroxyquinoline, 0.4 mg/mL bovine serum albumin (BSA), and 0.024 mg/mL neomycin sulfate. This mixture was incubated for two hours at 37° C. in the presence or absence of renin inhibitors. The produced angiotensin I was determined by radioimmunoassay (New England Nuclear kit). Test compounds to be assayed were dissolved in DMSO and diluted with 100 mM Tris-acetate buffer at pH 7.4 containing 0.5% BSA to the appropriate concentration. The final concentration of organic solvent in the reaction mixture was less than 1%. Control incubations at 37° C. were used to correct for effects of organic solvent on renin activity. The in vitro enzymatic conversion of angiotensinogen to angiotensin I was inhibited by test compounds of the invention.

In patent US6403648B2, “Alkylaminoalkyl-sulfonyl-terminated β-alanineamide amino-diol compounds for treatment of hypertension” (G. D. Searle & Co., priority 1993, dated 2002) one finds IC50 data, which are given here for one molecule.

As for `CC(C)C[C@H](O)[C@H](O)[C@H](CC1CCCCC1)NC(=O)[C@H](C)CNC(=O)C(Cc1ccccc1)CS(=O)(=O)CCN(C)C` (stereo partly shown) [Example 1], the IC50 (as a rule, the concentration at which inhibition is half-maximal) stood at 44 nM.
